Measurements published in US8008303B2, “Biphenyl derivatives and their use in treating hepatitis C” (AstraZeneca AB, priority 2005, dated 2011).

How the values were obtained:
[1] = tested on: HCV replicon cells Huh 9B; assay: HCV replicon assay (luciferase readout); format: cell-based; conditions: Hepatitis C virus, 72 h, concentration reducing replicon level (luciferase activity) by 50% vs untreated cell control; 72 h incubation
Procedure, shortened: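 Compounds, made up at twice final strength (final DMSO 1%), were added to subgenomic replicon cells one day after plating. Incubation then ran 72 h at 37 °C, 5% CO2, without G418. Replication was quantified as firefly luciferase luminescence in lysed cells, with cytotoxicity assessed on a duplicate clear plate.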

[2] = tested on: HCV replicon cells Huh 9B; format: cell-based; conditions: concentration reducing total cell area by 50% relative to DMSO controls; methylene blue, absorbance 620 nm; 72 h incubation

| SMILES | IC50 [1] [µM] | TD50 [2] |
| --- | --- | --- |
| Cc1ccc(NC(=O)CC2CCCCC2)cc1-c1ccc(C(=O)Nc2ccc(CN3CCS(=O)(=O)CC3)cc2)cc1 [Example 165, 5′-(2-Cyclohexyl-acetylamino)-2′-methyl-biphenyl-4-carboxylic acid [4-(1,1-dioxo-1lambda*6*-thiomorpholin-4-ylmethyl)-phenyl]-amide] | < 1 | * (* < 50 μM) |
| Cc1ccc(NC(=O)CC2CCCC2)cc1-c1ccc(C(=O)Nc2ccc(CN3CCS(=O)(=O)CC3)cc2)cc1 [Example 166, 5′-(2-Cyclopentyl-acetylamino)-2′-methyl-biphenyl-4-carboxylic acid [4-(1,1-dioxo-1lambda*6*-thiomorpholin-4-ylmethyl)-phenyl]-amide] | < 1 | * (* < 50 μM) |
| Cc1ccc(NC(=O)C2CCCC2)cc1-c1ccc(C(=O)Nc2ccc(CN3CCS(=O)(=O)CC3)cc2)cc1 [Example 167, 5′-(Cyclopentanecarbonyl-amino)-2′-methyl-biphenyl-4-carboxylic acid [4-(1,1-dioxo-1lambda*6*-thiomorpholin-4-ylmethyl)-phenyl]-amide] | < 1 | * (* < 50 μM) |
| O=C(Nc1ccc(CN2CCS(=O)(=O)CC2)cc1)c1ccc(-c2cccc(NC(=O)C3CC3)c2)cc1 [Example 168, 3′-(Cyclopropanecarbonyl-amino)-biphenyl-4-carboxylic acid [4-(1,1-dioxo-1lambda*6*-thiomorpholin-4-ylmethyl)-phenyl]-amide] | < 1 | * (* < 50 μM) |
| O=C(Nc1ccc(CN2CCS(=O)(=O)CC2)cc1)c1ccc(-c2cccc(NC(=O)C3CCC3)c2)cc1 [Example 169, 3′-(Cyclobutanecarbonyl-amino)-biphenyl-4-carboxylic acid [4-(1,1-dioxo-1lambda*6*-thiomorpholin-4-ylmethyl)-phenyl]-amide] | < 1 | * (* < 50 μM) |
| Cc1ccc(NC(=O)C2CCOCC2)cc1-c1ccc(C(=O)Nc2ccc(CN3CCS(=O)(=O)CC3)cc2)cc1 [Example 170, Tetrahydro-pyran-4-carboxylic acid {4′-[4-(1,1-dioxo-1lambda*6*-thiomorpholin-4-ylmethyl)-phenylcarbamoyl]-6-methyl-biphenyl-3-yl}-amide] | < 1 | * (* < 50 μM) |
| Cc1ccc(NC(=O)CC2CCOCC2)cc1-c1ccc(C(=O)Nc2ccc(CN3CCS(=O)(=O)CC3)cc2)cc1 [Example 171, 2′-Methyl-5′-(2-tetrahydro-pyran-4-yl-acetylamino)-biphenyl-4-carboxylic acid [4-(1,1-dioxo-1lambda*6*-thiomorpholin-4-ylmethyl)-phenyl]-amide] | < 1 | * (* < 50 μM) |
| Cc1ccc(-c2ccc(C(=O)Nc3ccc(CN4CCS(=O)(=O)CC4)cc3)cc2C)cc1NC(=O)C1CC1 [Example 172, 3′-(Cyclopropanecarbonyl-amino)-2,4′-dimethyl-biphenyl-4-carboxylic acid [4-(1,1-dioxo-1lambda*6*-thiomorpholin-4-ylmethyl)-phenyl]-amide] | 1 to 5 | * (* < 50 μM) |
| Cc1ccc(NC(=O)C2(C(F)(F)F)CC2)cc1-c1ccc(C(=O)Nc2ccc(CN3CCS(=O)(=O)CC3)cc2)cc1 [Example 173, 2′-Methyl-5′-[(1-trifluoromethyl-cyclopropanecarbonyl)-amino]-biphenyl-4-carboxylic acid [4-(1,1-dioxo-1lambda*6*-thiomorpholin-4-ylmethyl)-phenyl]-amide] | 1 to 5 | * (* < 50 μM) |
| Cc1ccc(NC(=O)C2(C#N)CC2)cc1-c1ccc(C(=O)Nc2ccc(CN3CCS(=O)(=O)CC3)cc2)cc1 [Example 174, 5′-[(1-Cyano-cyclopropanecarbonyl)-amino]-2′-methyl-biphenyl-4-carboxylic acid [4-(1,1-dioxo-1lambda*6*-thiomorpholin-4-ylmethyl)-phenyl]-amide] | 1 to 5 | * (* < 50 μM) |
| Cc1ccc(NC(=O)C2(C)CC2)cc1-c1ccc(C(=O)Nc2ccc(CN3CCS(=O)(=O)CC3)cc2)cc1 [Example 175, 2′-Methyl-5′-[(1-methyl-cyclopropanecarbonyl)-amino]-biphenyl-4-carboxylic acid [4-(1,1-dioxo-1lambda*6*-thiomorpholin-4-ylmethyl)-phenyl]-amide] | < 1 | * (* < 50 μM) |
| Cc1ccc(NC(=O)c2cscn2)cc1-c1ccc(C(=O)Nc2ccc(CN3CCS(=O)(=O)CC3)cc2)cc1 [Example 177, Thiazole-4-carboxylic acid {4′-[4-(1,1-dioxo-1lambda*6*-thiomorpholin-4-ylmethyl)-phenylcarbamoyl]-6-methyl-biphenyl-3-yl}-amide] | 1 to 5 | * (* < 50 μM) |
| Cc1ccc(NC(=O)CC2CC2)cc1-c1ccc(C(=O)Nc2ccc(CN3CCS(=O)(=O)CC3)cc2)cc1 [Example 178, 5′-(2-Cyclopropyl-acetylamino)-2′-methyl-biphenyl-4-carboxylic acid [4-(1,1-dioxo-1lambda*6*-thiomorpholin-4-ylmethyl)-phenyl]-amide] | < 1 | * (* < 50 μM) |
| Cc1ccc(NC(=O)c2cncs2)cc1-c1ccc(C(=O)Nc2ccc(CN3CCS(=O)(=O)CC3)cc2)cc1 [Example 179, Thiazole-5-carboxylic acid {4′-[4-(1,1-dioxo-1lambda*6*-thiomorpholin-4-ylmethyl)-phenylcarbamoyl]-6-methyl-biphenyl-3-yl}-amide] | < 1 | * (* < 50 μM) |
| CC(=O)Nc1ccc(C)c(-c2ccc(C(=O)Nc3ccc(CN4CCS(=O)(=O)CC4)cc3)cc2)c1 [Example 180, 5′-Acetylamino-2′-methyl-biphenyl-4-carboxylic acid [4-(1,1-dioxo-1lambda*6*-thiomorpholin-4-ylmethyl)-phenyl]-amide] | < 1 | * (* < 50 μM) |
| CCC(CC)C(=O)Nc1ccc(C)c(-c2ccc(C(=O)Nc3ccc(CN4CCS(=O)(=O)CC4)cc3)cc2)c1 [Example 181, 5′-(2-Ethyl-butyrylamino)-2′-methyl-biphenyl-4-carboxylic acid [4-(1,1-dioxo-1lambda*6*-thiomorpholin-4-ylmethyl)-phenyl]-amide] | < 1 | * (* < 50 μM) |
| CCCC(=O)Nc1ccc(C)c(-c2ccc(C(=O)Nc3ccc(CN4CCS(=O)(=O)CC4)cc3)cc2)c1 [Example 182, 5′-Butyrylamino-2′-methyl-biphenyl-4-carboxylic acid [4-(1,1-dioxo-1lambda*6*-thiomorpholin-4-ylmethyl)-phenyl]-amide] | < 1 | * (* < 50 μM) |
| Cc1ccc(NC(=O)C(C)C)cc1-c1ccc(C(=O)Nc2ccc(CN3CCS(=O)(=O)CC3)cc2)cc1 [Example 183, 5′-Isobutyrylamino-2′-methyl-biphenyl-4-carboxylic acid [4-(1,1-dioxo-1lambda*6*-thiomorpholin-4-ylmethyl)-phenyl]-amide] | < 1 | * (* < 50 μM) |
| Cc1ccc(NC(=O)C(C)(C)C)cc1-c1ccc(C(=O)Nc2ccc(CN3CCS(=O)(=O)CC3)cc2)cc1 [Example 184, 5′-(2,2-Dimethyl-propionylamino)-2′-methyl-biphenyl-4-carboxylic acid [4-(1,1-dioxo-1lambda*6*-thiomorpholin-4-ylmethyl)-phenyl]-amide] | < 1 | * (* < 50 μM) |
| O=C(Nc1ccc(CN2CCS(=O)(=O)CC2)cc1)c1ccc(-c2cc(NC(=O)C3CC3)ccc2OC(F)(F)F)cc1 [Example 185, 5′-(Cyclopropanecarbonyl-amino)-2′-trifluoromethoxy-biphenyl-4-carboxylic acid [4-(1,1-dioxo-1lambda*6*-thiomorpholin-4-ylmethyl)-phenyl]-amide] | < 1 | * (* < 50 μM) |
| COc1ccc(NC(=O)C2CC2)cc1-c1ccc(C(=O)Nc2ccc(CN3CCS(=O)(=O)CC3)cc2)cc1 [Example 186, 5′-(Cyclopropanecarbonyl-amino)-2′-methoxy-biphenyl-4-carboxylic acid [4-(1,1-dioxo-1lambda*6*-thiomorpholin-4-ylmethyl)-phenyl]-amide] | < 1 | * (* < 50 μM) |
| COc1ccc(NC(=O)C2CCCCC2)cc1-c1ccc(C(=O)Nc2ccc(CN3CCS(=O)(=O)CC3)cc2)cc1 [Example 187, 5′-(Cyclohexanecarbonyl-amino)-2′-methoxy-biphenyl-4-carboxylic acid [4-(1,1-dioxo-1lambda*6*-thiomorpholin-4-ylmethyl)-phenyl]-amide] | < 1 | * (* < 50 μM) |
| CCNC(=O)Nc1ccc(C)c(-c2ccc(C(=O)Nc3ccc(CN4CCS(=O)(=O)CC4)cc3)cc2)c1 [Example 188, 5′-(3-Ethyl-ureido)-2′-methyl-biphenyl-4-carboxylic acid [4-(1,1-dioxo-1lambda*6*-thiomorpholin-4-ylmethyl)-phenyl]-amide] | < 1 | * (* < 50 μM) |
| Cc1ccc(NC(=O)NC2CCCCC2)cc1-c1ccc(C(=O)Nc2ccc(CN3CCS(=O)(=O)CC3)cc2)cc1 [Example 189, 5′-(3-Cyclohexyl-ureido)-2′-methyl-biphenyl-4-carboxylic acid [4-(1,1-dioxo-1lambda*6*-thiomorpholin-4-ylmethyl)-phenyl]-amide] | < 1 | * (* < 50 μM) |
| CC(=O)C(=O)Nc1ccc(C)c(-c2ccc(C(=O)Nc3ccc(CN4CCS(=O)(=O)CC4)cc3)cc2)c1 [Example 190, 2′-Methyl-5′-(2-oxo-propionylamino)-biphenyl-4-carboxylic acid [4-(1,1-dioxo-1lambda*6*-thiomorpholin-4-ylmethyl)-phenyl]-amide] | < 1 | * (* < 50 μM) |
